Holding throughout (assay type): cell-based
Experiment [1] has as its system CHO-K1 cells. Put plainly: Transfection of luciferase plasmid into CHO-K1 cells in combination with supplements (DOPE, PLUS). As to the method: The transfection ability of the gemini compounds could be further enhanced by the addition of a neutral carrier, for example, dioleyl phosphatidylethanolamine (DOPE) (Farhood, H., et al (1985) Biochim. Biophys. Acta 1235 289) or a complexing reagent, for example, PLUS compound (Life Technologies Inc.). […] Transfection mediated by compound 55 with DOPE in a 2:1 ratio and the addition of 11.6 ul of PLUS compound lead to a mean count of 6.5×10^5 cps representing a 12-fold increase of luciferase activity in comparison to compound 55 alone. Incubation of the PLUS compound with the DNA and combination with compound 55 alone also lead to a 4-fold increase.

Experiment [2] deals with CHO-K1 cells. The experiment can be described thus: Transfection of luciferase plasmid into CHO-K1 cells. As to the method:
CHO-K1 cells (ATCC: CRL-9618) were seeded into T25-culture flasks (Corning-Costar Buckinghamshire, UK), at 7×10^5 cells per flask, 24 hours prior to transfection. The CHO-K1 cells were seeded in 5 ml MEM alpha medium with ribonucleosides and deoxyribonucleosides and supplemented with 1×L-glutamine and 10% v/v foetal bovine serum (complete medium). The cells were grown at 37° C. in 5% CO2 in a humidified atmosphere.
For transfection, 5 ug DNA (luciferase control plasmid) was incubated with the gemini compounds in water (final volume 400 μl). The peptide-based gemini compounds were made up at 1 mg ml^−1 in tissue culture grade water and then diluted to the appropriate concentration to a total volume of 200 μl. Following a 30 minute room temperature incubation, 2.6 ml OPTI-MEM® medium was added and the solution placed on the cells. Following an overnight incubation at 37° C., the transfection solution was replaced with complete medium and the cells incubated at 37° C. 24 hours post transfection the cells were detached from the flask and seeded into 96-well plates at a density of 0.5×10^5 cells per well and incubated for a further 24 hours at 37° C. Luciferase reporter gene assays were performed according to the manufacturers instructions (Roche Diagnostics, Mannheim, Germany) approximately 48 hours post transfection. The plates were left for a 15 minutes adaption period in the dark before counting for 60 seconds in a TopCount NXT counter (Canberra Packard). An average of eight wells were counted per transfection.
Control transfections were set up with no DNA, an anionic gemini compound and the commercially available reagent LipofectAmine PLUS™.

Another experiment has as its system HEK293 cells. The experiment can be described thus: Transfection of luciferase plasmid into HEK293 cells. As to the method: All tissue culture reagents were obtained from Life Technologies Inc. HEK 293 cells were seeded at 2-3×10^5 cells per well in Nunc six-well culture plates, 24 hours prior to transfection. The cells were seeded in 2 mls Dulbeccos Modified Eagle medium containing Earles salts and supplemented with 10% v/v foetal bovine serum (=complete medium). The cells were grown at 37° C. in 5% CO2 in a humidified atmosphere. 6 ug DNA (“luciferase control plasmid” from Promega Corp.) were dissolved in 100 ul serum free medium (OPTI-MEM®). The peptide-based gemini compounds were made up at 1 mg/ml in tissue culture grade water and then diluted in OPTI-MEM® to the appropriate concentration to a final volume of […]. The DNA and gemini solutions were mixed (to a total volume of 200 ul; final concentrations of 5, 25, 50, 100, 150, 200, 250 and 300 ug/ml) and left at room temperature for 15 minutes. The DNA/gemini mix was placed onto the cells in each well and left in contact for 18-20 hours. The cells were then washed twice with phophate buffered saline prior to 1 ml of fresh complete medium being added. Cells were incubated for a further 24 hours prior to lysis and luciferase activity assayed.
All luciferase activity assays were performed using the Canberra Packard (Berkshire, UK) Luclite kit according to the manufacturer's instructions with the exception that the cells in each well were resuspended in 1 ml lysis buffer and 10 ul aliquots mixed with 100 ul of the luciferase substrate. The reaction mix was left for a 15 minutes adaptation period in the dark before counting for 5 minutes in a Top Count scintillation counter. Luciferase activity is measured as counts per second (CPS) from the scintillation counter. Four independent counts were taken per well.
Control transfections were set up with no DNA, CaPO4, an anionic gemini compound (1) and the commercially available lipofection reagents LipofectAmine™ and Lipotaxi™ at the manufacturers recommended concentrations (10, 25, 50, 75, 125 ug/ml and 175, 250, 325, 400 and 500 ug/ml respectively).

Setting [3] is: compound 55 with DOPE 2:1 plus 11.6 ul PLUS compound.

The record followed here is patent publication US6693167B1, “Peptide-based gemini compounds” (SmithKline Beecham p.l.c., priority 1997, dated 2004).

The structures appear in SMILES notation.

On to `CCCCCCCCCCCCNC(=O)C(CO)NC(=O)C(CSCCSCC(NC(=O)C(N)CCCCNC(=O)C(N)CCCCN)C(=O)NC(CO)C(=O)NCCCCCCCCCCCC)NC(=O)C(N)CCCCNC(=O)C(N)CCCCN.Cl.Cl.Cl.Cl` (stereo not shown) [Compound 55], for which the “Increase of luciferase activity” value with CHO-K1 cells [1] (PLUS compound incubated with the DNA, combined with compound 55 alone (no DOPE)) was 4 fold; with CHO-K1 cells [1] (compound 55 and DOPE at 2:1 ratio) it was 9 fold. The “Increase of luciferase activity in comparison to compound 55 alone” value in the experiment with CHO-K1 cells [1] (setting [3]) is 12 fold. For the same compound, the “Luciferase activity, mean count” value in the experiment with CHO-K1 cells [1] (setting [3]) is 6.5×10^5 cps. For the same compound, the “Efficiency in facilitating transfection of the luciferase plasmid” value with CHO-K1 cells [2] and with HEK293 cells (at concentrations above 150 ug/ml) was “very efficient” throughout. Also, in the experiment on CHO-K1 cells [2] (5 ug luciferase control plasmid, mean of 8 wells), the “Luciferase activity, mean count at most effective concentration” value is on record as “about 2.4×10^5 cps”. Besides, the Most effective (peak) concentration for transfection in the experiment on CHO-K1 cells [2] (luciferase control plasmid) stood at 30 µM; with HEK293 cells (luciferase control plasmid) it was 300 µg/mL. Moreover, the “Luciferase activity, mean count at peak efficiency” value in the experiment on HEK293 cells (luciferase control plasmid, at the agent's most effective concentration, mean of 4 independent counts) is listed as “about 45,000 cps”.
